# Data taken from patent publication US20150225404A1, “PYRIDINE DERIVATIVE AND MEDICINE” (NIPPON SHINYAKU CO., LTD., priority 2012, published 2015).
# Where a name gives a salt, the structure may show the parent alone. Read-outs that look alike come from different tables or passages of the source.
# Legend:
# [1] = system: male Slc:ICR mice; assay: Action against formalin-induced pain behavior in mice; format: in vivo; details: Mus musculus, iv, 0.1 h, 6 minutes observation, read-out: Percent inhibition of pain-related behavior time (%); for inhibition in vivo at 1 mg/kg: test substance 1 mg/kg intravenously; for inhibition in vivo at 3 mg/kg: test substance 3 mg/kg intravenously
# Procedure: 4 to 6-week-old male Slc:ICR mice (available from Japan SLC, Inc.) were used. A medium or a test substance (1 mg/kg or 3 mg/kg) was intravenously administered to each mouse, and immediately thereafter, 20 μL of 1% or 5% formalin was subcutaneously administered to a right hind paw of the mouse. Thereafter, the mice were quickly put into an observation cage and measured for the total time (sec) of pain-related behavior (licking or biting behavior against the right hindlimb) during 6 minutes, and an average value of the pain-related behavior time of each group was calculated.
# The intensity of an analgesic action of the test substance was evaluated in terms of percent inhibition (%) of pain-related behavior time which is calculated as {(A−B)/A×100}, wherein A is an average value of the pain-related behavior time of a medium-administered group, and B is an average value of the pain-related behavior time of a test substance-administered group.
# [2] = target: T1, human mGluR5 (Homo sapiens, UniProt P41594); assay: Experiment for receptor function of mGluR5 (Ca2+-dependent fluorescence, FLIPR, CHO-K1 cells stably expressing human mGluR5); format: cell-based; details: L-glutamic acid 10 μM, Fluo-4 fluorescence
# T1 construct: expressed in transfected cells
# Method in brief: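 Fluo-4-loaded CHO-K1 cells pre-incubated 2 min with test substance, then stimulated with L-glutamic acid (final 10 μM) in HBSS, pH 7.4. FLIPR Ca2+ fluorescence normalized to glutamate alone (100%) and glutamate with 10 μM MPEP (0%); IC50 estimated by logistic fit.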
# [3] = system: male Slc:ICR mice; assay: Action against pain-related behavior and micturition cycle in mice with cyclophosphamide (CP)-induced acute cystitis; format: in vivo; details: Mus musculus, iv, 0.25 h, CP 300 mg/kg i.p., test substance 3 mg/kg intravenously 3 hours after CP, 15 minutes observation
# Procedure: An action of a test substance against visceral pain and frequent urination associated with cystitis, which was induced by intraperitoneal administration (20 mL/kg) of CP (300 mg/kg) to 4 to 5-week-old male Slc:ICR mice (available from Japan SLC, Inc.), was investigated. This experiment was performed according to a method described in European Journal of Pharmacology, 676 (2012), pp. 75-80.
# Three hours after the administration of CP, a test substance (1 mg/kg or 3 mg/kg) was intravenously administered, and observation by visual inspection and video recording were performed for 15 minutes immediately thereafter. In the observation by visual inspection, four pain-related behaviors (eye opening, rounded back, leg dragging, and behavior during urination) were scored, each rated on a scale of 0-10, according to the following criteria.
# Eye opening (normal: 0 point, sometimes closed or half-open eyes: 5 points, completely closed: 10 points)
# Rounded back (normal: 0 point, sometimes crouched: 5 points, crouched at almost all times: 10 points)
# Leg dragging (normal: 0 point, leg dragging: 10 points)
# Behavior during urination (normal: 0 point, shaking hip in micturition: 10 points)
# In addition, the video was played back, and the frequency of licking behavior around the abdomen as a pain-related behavior was scored, rated on a scale of 0-10, according to the following criteria.
# Licking behavior around the abdomen (0 to 3 times: 0 point, 4 times to 10 times: 5 points, 11 times or more: 10 points)
# Furthermore, the video was played back, and the frequency of urination (urination marks) on a filter paper was counted and taken as an index for micturition cycle.
# An average value of the pain-related behavior score of each group (total score of the five items: 50 points at maximum) and an average value of the frequency of urination (urination marks) on the filter paper were determined.
# The strength of an analgesic action of the test substance against the CP-induced visceral pain was evaluated in terms of percent inhibition (%) of pain-related behavior score which is calculated as {(A−B)/A×100}, wherein A is an average value of the pain-related behavior score of a medium-administered group, and B is an average value of the pain-related behavior score of a test substance-administered group.
# In addition, the strength of a frequent urination inhibitory action of the test substance against the CP-induced frequent urination was evaluated in terms of percent inhibition (%) of the frequency of urination which is calculated as {(C−D)/C×100}, wherein C is an average value of the frequency of urination of a medium-administered group, and D is an average value of the frequency of urination of a test substance-administered group.
# T1 sequence (P41594 21-1212): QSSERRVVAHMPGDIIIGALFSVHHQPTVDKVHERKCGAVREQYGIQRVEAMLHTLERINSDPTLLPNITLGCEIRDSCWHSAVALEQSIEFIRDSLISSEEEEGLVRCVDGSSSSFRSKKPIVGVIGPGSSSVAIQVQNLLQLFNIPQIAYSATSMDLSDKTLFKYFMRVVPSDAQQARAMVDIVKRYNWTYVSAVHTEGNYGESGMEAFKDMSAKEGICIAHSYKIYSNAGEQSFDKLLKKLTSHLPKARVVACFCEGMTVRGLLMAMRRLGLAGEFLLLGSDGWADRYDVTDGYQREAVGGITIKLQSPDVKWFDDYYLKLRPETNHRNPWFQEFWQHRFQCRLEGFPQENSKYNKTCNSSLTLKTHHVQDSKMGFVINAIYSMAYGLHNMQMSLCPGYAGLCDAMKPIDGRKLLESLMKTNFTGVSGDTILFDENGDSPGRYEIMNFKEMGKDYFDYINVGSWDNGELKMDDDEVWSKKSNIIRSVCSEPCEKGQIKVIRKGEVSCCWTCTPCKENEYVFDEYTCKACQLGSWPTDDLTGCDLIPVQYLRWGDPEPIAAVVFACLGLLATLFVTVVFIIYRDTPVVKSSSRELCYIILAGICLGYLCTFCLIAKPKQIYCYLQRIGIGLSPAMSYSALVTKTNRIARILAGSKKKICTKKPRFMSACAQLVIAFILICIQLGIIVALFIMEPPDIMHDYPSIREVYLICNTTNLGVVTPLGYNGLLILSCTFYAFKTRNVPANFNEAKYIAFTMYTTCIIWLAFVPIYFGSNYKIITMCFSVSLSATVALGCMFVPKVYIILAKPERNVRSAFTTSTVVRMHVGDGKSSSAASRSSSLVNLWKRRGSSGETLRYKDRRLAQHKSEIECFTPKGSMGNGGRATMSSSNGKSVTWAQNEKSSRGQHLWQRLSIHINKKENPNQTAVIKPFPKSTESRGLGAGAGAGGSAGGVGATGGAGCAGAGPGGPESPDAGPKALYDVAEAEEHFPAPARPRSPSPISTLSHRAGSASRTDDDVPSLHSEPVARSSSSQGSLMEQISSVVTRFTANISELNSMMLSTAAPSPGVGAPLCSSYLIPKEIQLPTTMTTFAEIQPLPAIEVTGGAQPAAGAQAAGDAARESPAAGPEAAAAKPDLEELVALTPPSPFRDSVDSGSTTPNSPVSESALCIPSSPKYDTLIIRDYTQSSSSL
Structure (SMILES),IC50 [2],inhibition in vivo at 1 mg/kg ([1]; 1% formalin),inhibition in vivo at 1 mg/kg ([1]; 5% formalin),further results
"c1ccc(COc2cc(-c3cncnc3)c3c(n2)CCC3)nc1 [Example 12, 2-(Pyridin-2-ylmethoxy)-4-(pyrimidin-5-yl)-6,7-dihydro-5H-cyclopenta[b]pyridine hydrochloride]",–,66.8%,–,–
"Fc1cccc(COc2cc(-c3cncnc3)c3c(n2)CCC3)c1 [Example 15, 2-[(3-Fluorobenzyl)oxy]-4-(pyrimidin-5-yl)-6,7-dihydro-5H-cyclopenta[b]pyridine]",–,–,64%,–
"N#Cc1cccc(COc2cc(-c3cncnc3)c3c(n2)CCC3)c1 [Example 23, 3-({[4-(Pyrimidin-5-yl)-6,7-dihydro-5H-cyclopenta[b]pyridin-2-yl]oxy}methyl)benzonitrile]",39 nM,–,47.9%,–
"c1cnc(COc2cc(-c3cncnc3)c3c(n2)CCCC3)cn1 [Example 163, 2-(Pyrazin-2-ylmethoxy)-4-(pyrimidin-5-yl)-5,6,7,8-tetrahydroquinoline]",–,–,–,inhibition in vivo at 3 mg/kg ([1]; 5% formalin): 37.2%
"c1ncc(-c2cc(OCc3nccs3)nc3c2CCCC3)cn1 [Example 164, 4-(Pyrimidin-5-yl)-2-(1,3-thiazol-2-ylmethoxy)-5,6,7,8-tetrahydroquinoline]",27.9 nM,42.2%,–,–
"c1ncc(-c2cc(OCc3ncco3)nc3c2CCCC3)cn1 [Example 165, 2-(1,3-Oxazol-2-ylmethoxy)-4-(pyrimidin-5-yl)-5,6,7,8-tetrahydroquinoline]",37.9 nM,52.3%,–,–
"OCc1cncc(-c2cc(OCc3ccccn3)nc3c2CCC3)n1 [Example 268, {6-[2-(Pyridin-2-ylmethoxy)-6,7-dihydro-5H-cyclopenta[b]pyridin-4-yl]pyrazin-2-yl}methanol hydrochloride]",–,–,53.9%,–
"Nc1ncc(-c2cc(OCc3cccc(F)n3)nc3c2CCCC3)cn1 [Example 283, 5-{2-[(6-Fluoropyridin-2-yl)methoxy]-5,6,7,8-tetrahydroquinolin-4-yl}pyrimidin-2-amine hydrochloride]",–,–,38.8%,–

# Further lines, with some results ahead:
IC50 [2],Structure (SMILES),inhibition in vivo at 1 mg/kg ([1]; 1% formalin),inhibition in vivo at 1 mg/kg ([1]; 5% formalin),further results
5.26 nM,"Fc1ncccc1-c1cc(OCc2ccccn2)nc2c1CCC2 [Example 2, 4-(2-Fluoropyridin-3-yl)-2-(pyridin-2-ylmethoxy)-6,7-dihydro-5H-cyclopenta[b]pyridine hydrochloride]",47%,–,–
12 nM,"N#Cc1ncccc1-c1cc(OCc2ccccn2)nc2c1CCC2 [Example 3, 3-[2-(Pyridin-2-ylmethoxy)-6,7-dihydro-5H-cyclopenta[b]pyridin-4-yl]pyridine-2-carbonitrile]",25.1%,–,–
153 nM,"c1ccc(COc2cc(-c3cccnc3)c3c(n2)CCCC3)nc1 [Example 82, 4-(Pyridin-3-yl)-2-(pyridin-2-ylmethoxy)-5,6,7,8-tetrahydroquinoline]",–,–,inhibition in vivo at 3 mg/kg ([1]; 1% formalin): 59.8%
152 nM,"c1cnc(COc2cc(-c3cccnc3)c3c(n2)CCCC3)nc1 [Example 90, 4-(Pyridin-3-yl)-2-(pyrimidin-2-ylmethoxy)-5,6,7,8-tetrahydroquinoline]",–,54.3%,–
36 nM,"Nc1ncc(-c2cc(OCc3ncccc3F)nc3c2CCCC3)cn1 [Example 191, 5-{2-[(3-Fluoropyridin-2-yl)methoxy]-5,6,7,8-tetrahydroquinolin-4-yl}pyrimidin-2-amine hydrochloride]",–,–,inhibition in vivo at 3 mg/kg ([3]; read-out: Percent inhibition of pain-related behavior score (%)): 20.5%; inhibition in vivo at 3 mg/kg ([3]; read-out: Percent inhibition of the frequency of urination (%)): 36.5%
52.1 nM,"OCc1ncc(-c2cc(OCc3ccccn3)nc3c2CCCC3)s1 [Example 226, {5-[2-(Pyridin-2-ylmethoxy)-5,6,7,8-tetrahydroquinolin-4-yl]-1,3-thiazol-2-yl}methanol hydrochloride]",26.8%,–,–
36.2 nM,"COCc1ncc(-c2cc(OCc3ccccn3)nc3c2CCCC3)s1 [Example 227, 4-[2-(Methoxymethyl)-1,3-thiazol-5-yl]-2-(pyridin-2-ylmethoxy)-5,6,7,8-tetrahydroquinoline]",25.6%,–,–
